PubChem BioAssay AID248 (DTP/NCI, 2004)
“And” between values parts separate entries of the source, which are not always exact repeats. Equal values may be shown once. Toxic doses and inconclusive results are not listed. No stated cut-off is given here; in the data, active means T/C of 150% or more; inactive means T/C below 125%.

System: L1210 leukemia ip in BDF1 mice, survival T/C
Assay: NCI In Vivo Anticancer Drug Screen. Data for tumor model L1210 Leukemia (intraperitoneal) in B6D2F1 (BDF1) mice
Conditions: endpoint: mean survival time, higher = longer survival
Outline: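 Transplanted-tumor mice were given test agent; controls received vehicle only. Survival readings from the two groups were divided (treated over control).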

[1] = dose: 100.0 mg/kg/injection, schedule: Q04DX003 (ip), vehicle: saline
[2] = dose: 200.0 mg/kg/injection, schedule: Q04DX003 (ip), vehicle: saline
[3] = dose: 400.0 mg/kg/injection, schedule: Q04DX003 (ip), vehicle: saline
[4] = dose: 100.0 mg/kg/injection, schedule: Q04DX002 (ip), vehicle: saline with Tween-80
[5] = dose: 50.0 mg/kg/injection, schedule: Q01DX001 (ip), vehicle: saline
[6] = dose: 100.0 mg/kg/injection, schedule: Q01DX001 (ip), vehicle: saline
[7] = dose: 200.0 mg/kg/injection, schedule: Q01DX001 (ip), vehicle: saline
[8] = dose: 400.0 mg/kg/injection, schedule: Q01DX001 (ip), vehicle: saline
[9] = dose: 100.0 mg/kg/injection, schedule: Q01DX001 (ip), vehicle: Klucel (hydroxypropylcellulose) (HPC)
[10] = dose: 200.0 mg/kg/injection, schedule: Q01DX001 (ip), vehicle: Klucel (hydroxypropylcellulose) (HPC)
[11] = dose: 400.0 mg/kg/injection, schedule: Q01DX001 (ip), vehicle: Klucel (hydroxypropylcellulose) (HPC)
[12] = dose: 100.0 mg/kg/injection, schedule: Q04DX003 (ip), vehicle: Klucel (hydroxypropylcellulose) (HPC)
[13] = dose: 200.0 mg/kg/injection, schedule: Q04DX003 (ip), vehicle: Klucel (hydroxypropylcellulose) (HPC)
[14] = dose: 400.0 mg/kg/injection, schedule: Q04DX003 (ip), vehicle: Klucel (hydroxypropylcellulose) (HPC)
[15] = dose: 6.25 mg/kg/injection, schedule: Q04DX003 (ip), vehicle: saline
[16] = dose: 12.5 mg/kg/injection, schedule: Q04DX003 (ip), vehicle: saline

Measured: T/C

O=C(CC(CC(=O)c1ccccc1)c1ccncc1)c1ccccc1
inactive: dose: 50.0 mg/kg/injection, schedule: Q01DX001 (ip), vehicle: carboxymethylcellulose (CMC) 95 % of control | dose: 200.0 mg/kg/injection, schedule: Q01DX001 (ip), vehicle: carboxymethylcellulose (CMC) 90 % of control | dose: 400.0 mg/kg/injection, schedule: Q01DX001 (ip), vehicle: carboxymethylcellulose (CMC) 86 % of control

c1ccc(N=Nc2ccc[nH]2)cc1
inactive: dose: 50.0 mg/kg/injection, schedule: Q01DX009 (ip), vehicle: acetone 98 % of control | dose: 100.0 mg/kg/injection, schedule: Q01DX009 (ip), vehicle: acetone 102 % of control

CC(=O)OC1C=CC(Oc2ccc([N+](=O)[O-])cc2)OC1CO (stereo not given)
inactive: [1] 93 % of control | [2] 91 % of control | [3] 96 % of control

CNC(=O)Nc1ccc(C(=O)O)cc1
inactive: dose: 100.0 mg/kg/injection, schedule: Q04DX002 (ip), vehicle: Klucel (hydroxypropylcellulose) (HPC) 102 % of control | dose: 200.0 mg/kg/injection, schedule: Q04DX002 (ip), vehicle: Klucel (hydroxypropylcellulose) (HPC) 95 % of control | dose: 400.0 mg/kg/injection, schedule: Q04DX002 (ip), vehicle: Klucel (hydroxypropylcellulose) (HPC) 95 % of control

NC(=O)c1ccc(NC(=O)CCC(=O)Nc2ccc(C(N)=O)cn2)nc1
inactive: dose: 0.36 mg/kg/injection, schedule: Q01DX Z (ip), vehicle: carboxymethylcellulose (CMC) 105 % of control | dose: 0.55 mg/kg/injection, schedule: Q01DX Z (ip), vehicle: carboxymethylcellulose (CMC) 102 % of control | dose: 0.83 mg/kg/injection, schedule: Q01DX Z (ip), vehicle: carboxymethylcellulose (CMC) 102 % of control | dose: 1.0 mg/kg/injection, schedule: Q01DX Z (ip), vehicle: carboxymethylcellulose (CMC) 105 % of control | dose: 1.25 mg/kg/injection, schedule: Q01DX Z (ip), vehicle: carboxymethylcellulose (CMC) 103 % of control and 114 % of control | dose: 2.0 mg/kg/injection, schedule: Q01DX Z (ip), vehicle: carboxymethylcellulose (CMC) 107 % of control | dose: 2.5 mg/kg/injection, schedule: Q01DX Z (ip), vehicle: carboxymethylcellulose (CMC) 110 % of control | dose: 3.0 mg/kg/injection, schedule: Q01DX Z (ip), vehicle: carboxymethylcellulose (CMC) 95 % of control | dose: 4.0 mg/kg/injection, schedule: Q01DX Z (ip), vehicle: carboxymethylcellulose (CMC) 104 % of control | dose: 5.0 mg/kg/injection, schedule: Q01DX Z (ip), vehicle: carboxymethylcellulose (CMC) 124 % of control and 91 % of control | dose: 10.0 mg/kg/injection, schedule: Q01DX Z (ip), vehicle: carboxymethylcellulose (CMC) 118 % of control

N[n+]1ccccc1
inactive: [4] 102 % of control | dose: 200.0 mg/kg/injection, schedule: Q04DX002 (ip), vehicle: saline with Tween-80 102 % of control | dose: 400.0 mg/kg/injection, schedule: Q04DX002 (ip), vehicle: saline with Tween-80 98 % of control

NNC(=O)CCc1ccccc1Br
inactive: dose: 100.0 mg/kg/injection, schedule: Q04DX003 (ip), vehicle: saline with Tween-80 99 % of control | dose: 200.0 mg/kg/injection, schedule: Q04DX003 (ip), vehicle: saline with Tween-80 92 % of control

CCOC(=O)c1ccc(NC(=S)Nc2ccccc2S)cc1
inactive: dose: 25.0 mg/kg/injection, schedule: Q04DX002 (ip), vehicle: saline with Tween-80 101 % of control | dose: 50.0 mg/kg/injection, schedule: Q04DX002 (ip), vehicle: saline with Tween-80 101 % of control | [4] 93 % of control and 87 % of control

O=C(/C=C\c1ccc(Cl)cc1)OCCCCOC(=O)/C=C/c1ccc(Cl)cc1
inactive: [5] 96 % of control | [6] 93 % of control | [7] 93 % of control | [8] 93 % of control

CCOC(=O)c1cnc(C)nc1NCc1ccccc1
inactive: [9] 101 % of control | [10] 103 % of control | [11] 113 % of control

CC1(C)CCC(C)(C)c2cc(O)ccc21
inactive: [6] 94 % of control | [12] 92 % of control | [7] 96 % of control | [13] 92 % of control | [8] 89 % of control | [14] 87 % of control

Cc1ccc(S(=O)(=O)/C(Cl)=C(/Cl)S(=O)(=O)c2ccc(C)cc2)cc1
inactive: dose: 3.12 mg/kg/injection, schedule: Q01DX009 (ip), vehicle: saline 95 % of control | dose: 6.25 mg/kg/injection, schedule: Q01DX009 (ip), vehicle: saline 97 % of control | [15] 88 % of control | dose: 12.5 mg/kg/injection, schedule: Q01DX001 (ip), vehicle: saline 94 % of control | dose: 12.5 mg/kg/injection, schedule: Q01DX009 (ip), vehicle: saline with Tween-80 95 % of control | [16] 92 % of control | dose: 25.0 mg/kg/injection, schedule: Q01DX001 (ip), vehicle: saline 92 % of control | dose: 25.0 mg/kg/injection, schedule: Q01DX009 (ip), vehicle: saline with Tween-80 89 % of control | [7] 103 % of control

OC1CCCCC1Cc1ccccc1 (stereo not given)
inactive: dose: 100.0 mg/kg/injection, schedule: Q04DX003 (ip), vehicle: gum acacia 102 % of control | dose: 200.0 mg/kg/injection, schedule: Q04DX003 (ip), vehicle: gum acacia 96 % of control | dose: 400.0 mg/kg/injection, schedule: Q04DX003 (ip), vehicle: gum acacia 98 % of control

CSc1nc2nc[nH]c(=O)c2cc1C#N
inactive: [9] 91 % of control | [10] 96 % of control | [11] 106 % of control

ClP1(N2CCCCC2)=NP(Cl)(N2CCCCC2)=NP(Cl)(N2CCCCC2)=NP(Cl)(N2CCCCC2)=N1 (stereo not given)
inactive: [1] 105 % of control | [2] 94 % of control | [3] 94 % of control

CC1CCCN(C)C1 (stereo not given)
inactive: dose: 100.0 mg/kg/injection, schedule: Q01DX009 (ip), vehicle: Klucel (hydroxypropylcellulose) (HPC) 100 % of control | [12] 100 % of control | [13] 100 % of control | [14] 93 % of control

Cc1nc(-c2ccccc2)oc1-c1ccccc1
inactive: [1] 92 % of control | [2] 95 % of control | [3] 92 % of control

Cc1ccc(C(=O)C=C(C(F)(F)F)C(F)(F)F)cc1
inactive: [15] 94 % of control | [16] 96 % of control | dose: 25.0 mg/kg/injection, schedule: Q04DX003 (ip), vehicle: saline 103 % of control

Nc1ncnc2c1ncn2CCC(O)c1ccccc1 (stereo not given)
inactive: [5] 95 % of control | [6] 93 % of control | [7] 95 % of control | [8] 93 % of control

CCOC(=O)c1c[nH]c2cc(OC)ccc2c1=O
inactive: dose: 100.0 mg/kg/injection, schedule: Q01DX009 (ip), vehicle: saline with Tween-80 92 % of control | dose: 200.0 mg/kg/injection, schedule: Q01DX009 (ip), vehicle: saline with Tween-80 93 % of control

Cc1n(CC(C)C)c2c([n+]1CC(=O)c1ccc([N+](=O)[O-])cc1)C(=O)c1ccccc1C2=O
inactive: dose: 5.0 mg/kg/injection, schedule: Q01DX001 (ip), vehicle: carboxymethylcellulose (CMC) 93 % of control | dose: 10.0 mg/kg/injection, schedule: Q01DX001 (ip), vehicle: carboxymethylcellulose (CMC) 86 % of control | dose: 20.0 mg/kg/injection, schedule: Q01DX001 (ip), vehicle: carboxymethylcellulose (CMC) 97 % of control
